What is called IC50 is the concentration that inhibits the measured activity by half. Higher therefore signals lower potency. The melting point is the temperature of the solid-liquid transition.

In data set [1] the target is T1, human EGFR (Homo sapiens, UniProt P00533).
T1 construct: human EGFR (His672-Ala1210); GST (N); purchased Cell Signaling Technologies; host or cells: baculovirus expression system
The experiment in a line: HTScan Receptor Kinase Assay, EGFR. The format is biochemical.

For data set [2], the target named is human VEGFR2 (Homo sapiens, UniProt P35968). Description: HTScan Receptor Kinase Assay, VEGFR2.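 Also: recombinant GST-His-tagged human VEGFR2 kinase domain phosphorylating biotinylated gastrin precursor peptide, 30 min at room temperature, phosphotyrosine detected by Europium-labelled antibody time-resolved fluorescence.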
Chain of human VEGFR2 (P35968 807-1356 limits assumed): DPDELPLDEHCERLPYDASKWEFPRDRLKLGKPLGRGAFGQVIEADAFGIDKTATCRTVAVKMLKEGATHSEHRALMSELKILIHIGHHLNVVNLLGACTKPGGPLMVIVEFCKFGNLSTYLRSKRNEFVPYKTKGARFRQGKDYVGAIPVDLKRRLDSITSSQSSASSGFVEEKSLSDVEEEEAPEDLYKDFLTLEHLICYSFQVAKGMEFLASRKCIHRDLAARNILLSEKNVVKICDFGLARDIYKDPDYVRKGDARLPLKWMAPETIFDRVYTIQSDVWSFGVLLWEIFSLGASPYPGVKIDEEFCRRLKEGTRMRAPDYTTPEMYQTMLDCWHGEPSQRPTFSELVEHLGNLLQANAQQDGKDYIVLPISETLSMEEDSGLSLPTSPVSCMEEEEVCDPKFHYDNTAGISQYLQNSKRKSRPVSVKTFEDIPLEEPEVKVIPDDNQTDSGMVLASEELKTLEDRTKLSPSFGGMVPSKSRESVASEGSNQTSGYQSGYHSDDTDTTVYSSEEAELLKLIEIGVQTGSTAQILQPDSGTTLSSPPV
Experimental: (§1) The ability of compounds to inhibit receptor kinase (EGFR, HER2/ErbB2, and VEGFR2) activity was assayed using HTScan™ Receptor Kinase Assay Kits (Cell Signaling Technologies, Danvers, Mass.). […] VEGFR2 tyrosine kinase was produced using a baculovirus expression system from a construct containing a human VEGFR2 cDNA kinase domain (Asp805-Val1356) (GenBank accession No. AF035121) fragment amino-terminally fused to a GST-HIS6-Thrombin cleavage site. The proteins were purified by one-step affinity chromatography using glutathione-agarose. An anti-phosphotyrosine monoclonal antibody, P-Tyr-100, was used to detect phosphorylation of biotinylated substrate peptides (EGFR, Biotin-PTP1B (Tyr66); HER2/ErbB2, Biotinylated FLT3 (Tyr589); VEGFR2, Biotin-Gastrin Precursor (Tyr87).). […] Fluorescence was measured on a WALLAC Victor 2 plate reader and reported as relative fluorescence units (RFU). Data were plotted using GraphPad Prism (v4.0a) and IC50's calculated using a sigmoidal dose response curve fitting algorithm.
(§2) Each assay was setup as follows: Added 100 μl of 10 mM ATP to 1.25 ml 6 mM substrate peptide. Diluted the mixture with dH20 to 2.5 ml to make 2×ATP/substrate cocktail ([ATP]=400 mM, [substrate]=3 mM). Immediately transfer enzyme from −80° C. to ice. Allowed enzyme to thaw on ice. Microcentrifuged briefly at 4° C. to bring liquid to the bottom of the vial. Returned immediately to ice. […] Transfer 1.25 ml of DTT/Kinase buffer to enzyme tube to make 4× reaction cocktail ([enzyme]=4 ng/μL in 4× reaction cocktail). […] Incubated reaction plate at room temperature for 30 minutes. Added 50 μl/well Stop Buffer (50 mM EDTA, pH 8) to stop the reaction. Transferred 25 μl of each reaction and 75 μl dH2O/well to a 96-well streptavidin-coated plate and incubated at room temperature for 60 minutes. Washed three times with 200 μl/well PBS/T (PBS, 0.05% Tween-20). […] Added 100 μl/well primary antibody. Incubated at room temperature for 60 minutes. Washed three times with 200 μl/well PBS/T. Diluted Europium labeled anti-mouse IgG 1:500 in PBS/T with 1% BSA. Added 100 μl/well diluted antibody. Incubated at room temperature for 30 minutes. Washed five times with 200 μl/well PBS/T. Added 100 μl/well DELFIA® Enhancement Solution. Incubated at room temperature for 5 minutes.
Data set [3] addresses human HER2/ErbB2 (Homo sapiens, UniProt P04626). Description: HTScan Receptor Kinase Assay, HER2/ErbB2.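 Also: europium time-resolved fluorescence detection of anti-phosphotyrosine antibody binding to biotinylated FLT3 (Tyr589) peptide phosphorylated by the kinase, 30 min reaction at room temperature.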
Experimental: as §1, §2
The test system of data set [4] is HDAC. The experiment in a line: HDAC fluorimetric assay kit (AK-500, Biomol), HeLa nuclear extract. The class given is biochemical. How it is done: HDAC inhibitors were screened using an HDAC fluorimetric assay kit (AK-500, Biomol, Plymouth Meeting, Pa.). […] Each assay was setup as follows: Defrosted all kit components and kept on ice until use. […] Prepared dilutions of Trichostatin A (TSA, positive control) and tested compounds in assay buffer (5× of final concentration). Diluted Fluor de Lys™ Substrate in assay buffer to 100 uM (50 fold=2× final). Diluted Fluor de Lys™ developer concentrate 20-fold (e.g. 50 μl plus 950 μl Assay Buffer) in cold assay buffer. Second, diluted the 0.2 mM Trichostatin A 100-fold in the 1× Developer (e.g. 10 μl in 1 ml; final Trichostatin A concentration in the 1× Developer=2 μM; final concentration after addition to HDAC/Substrate reaction=1 μM). Added Assay buffer, diluted trichostatin A or test inhibitor to appropriate wells of the microtiter plate. Added diluted HeLa extract or other HDAC sample to all wells except for negative controls.

Chain of human HER2/ErbB2 (P04626 676-1255): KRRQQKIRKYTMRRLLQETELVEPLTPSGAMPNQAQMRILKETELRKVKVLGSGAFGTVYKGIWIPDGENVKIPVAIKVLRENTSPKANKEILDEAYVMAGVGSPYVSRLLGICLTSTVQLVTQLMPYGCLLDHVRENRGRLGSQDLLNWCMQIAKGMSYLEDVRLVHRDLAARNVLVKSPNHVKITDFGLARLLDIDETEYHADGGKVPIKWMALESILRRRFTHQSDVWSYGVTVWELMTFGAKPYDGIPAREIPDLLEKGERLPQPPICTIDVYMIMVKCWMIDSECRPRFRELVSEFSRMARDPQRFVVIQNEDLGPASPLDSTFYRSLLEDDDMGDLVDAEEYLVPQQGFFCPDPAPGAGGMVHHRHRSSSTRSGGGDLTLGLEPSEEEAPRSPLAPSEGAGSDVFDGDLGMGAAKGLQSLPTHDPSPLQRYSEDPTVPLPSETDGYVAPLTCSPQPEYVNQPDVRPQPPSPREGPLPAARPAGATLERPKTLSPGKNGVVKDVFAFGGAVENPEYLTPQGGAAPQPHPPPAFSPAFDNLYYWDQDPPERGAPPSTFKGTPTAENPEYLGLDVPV
T1 sequence (P00533 672-1210): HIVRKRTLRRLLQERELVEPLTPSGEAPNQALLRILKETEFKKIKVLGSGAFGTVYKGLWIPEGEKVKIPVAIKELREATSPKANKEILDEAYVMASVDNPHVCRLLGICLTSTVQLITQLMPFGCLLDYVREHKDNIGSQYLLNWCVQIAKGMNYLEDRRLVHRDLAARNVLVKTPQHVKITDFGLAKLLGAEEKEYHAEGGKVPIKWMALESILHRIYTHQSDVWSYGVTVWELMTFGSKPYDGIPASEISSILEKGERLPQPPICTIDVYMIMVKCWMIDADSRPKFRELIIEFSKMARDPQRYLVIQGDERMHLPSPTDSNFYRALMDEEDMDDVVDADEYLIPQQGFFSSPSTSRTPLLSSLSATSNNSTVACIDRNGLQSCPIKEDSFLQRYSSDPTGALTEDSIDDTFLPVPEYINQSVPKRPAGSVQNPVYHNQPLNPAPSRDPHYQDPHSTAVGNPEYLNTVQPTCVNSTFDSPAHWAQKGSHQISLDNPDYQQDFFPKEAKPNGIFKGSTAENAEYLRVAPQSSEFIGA

Compound `C[C@@H](Nc1ncnc2[nH]c(-c3ccc(OCC(=O)NO)cc3)cc12)c1ccccc1` [Compound 17, (R)—N-hydroxy-2-(4-(4-(1-phenylethylamino)-7H-pyrrolo[2,3-d]pyrimidin-6-yl)phenoxy)acetamide] yielded a melting point of 116.8 to 126.8 °C. Further, in data set [1], the IC50 was < 100 nM. Further, the IC50 in data set [2] is 1000 to 10000 nM. Besides, the concentration for half-maximal inhibition (IC50) in data set [3] was < 100 nM. Besides, the 50% inhibitory concentration (IC50) in data set [4] was < 100 nM.

Consider `C[C@@H](Nc1ncnc2[nH]c(-c3ccc(NC(=O)CCCC(=O)NO)cc3)cc12)c1ccccc1` [Compound 25, (R)—N^1-Hydroxy-N^5-(4-(4-(1-phenylethylamino)-7H-pyrrolo[2,3-d]pyrimidin-6-yl)phenyl)glutaramide], for which the IC50 is < 100 nM in data set [1], 100 to 1000 nM in data set [2], 100 to 1000 nM in data set [3] and 100 to 1000 nM in data set [4].

With `C[C@@H](Nc1ncnc2[nH]c(-c3ccc(C(=O)NCCNCC(=O)NO)cc3)cc12)c1ccccc1` [Compound 28, (R)—N-(2-(2-(Hydroxyamino)-2-oxoethylamino)ethyl)-4-(4-(1-phenylethylamino)-7H-pyrrolo[2,3-d]pyrimidin-6-yl)benzamide], the IC50 in data set [1] was 100 to 1000 nM; in data set [2], 100 to 1000 nM; in data set [3], 100 to 1000 nM; in data set [4] it was > 10000 nM.

For the compound `C[C@@H](Nc1ncnc2[nH]c(-c3ccc(CNCc4ccc(C(=O)NO)cc4)cc3)cc12)c1ccccc1` [Compound 44, (R)—N-hydroxy-4-((4-(4-(1-phenylethylamino)-7H-pyrrolo[2,3-d]pyrimidin-6-yl)benzylamino)methyl)benzamide], the IC50 in data set [1] is < 100 nM; in data set [2] it was 100 to 1000 nM; in data set [3], 100 to 1000 nM; in data set [4] it was 100 to 1000 nM.

Regarding `C[C@@H](Nc1ncnc2[nH]c(-c3ccc(C(=O)NCCNCCC(=O)NO)cc3)cc12)c1ccccc1` [Compound 29, (R)—N-(2-(3-(Hydroxyamino)-3-oxopropylamino)ethyl)-4-(4-(1-phenylethylamino)-7H-pyrrolo[2,3-d]pyrimidin-6-yl)benzamide], the IC50 was < 100 nM in data set [1], 100 to 1000 nM in data set [2], 100 to 1000 nM in data set [3] and < 100 nM in data set [4].

Take `C[C@@H](Nc1ncnc2[nH]c(-c3ccc(OCCCCC(=O)NO)cc3)cc12)c1ccccc1` [Compound 20, (R)—N-Hydroxy-5-(4-(4-(1-phenylethylamino)-7H-pyrrolo[2,3-d]pyrimidin-6-yl)phenoxy)pentanamide]: the IC50 in data set [1] was < 100 nM; in data set [2] it was 100 to 1000 nM; in data set [3] it was 100 to 1000 nM; in data set [4] it was 100 to 1000 nM.

For `C[C@@H](Nc1ncnc2[nH]c(-c3ccc(C(=O)NCCNCCCCCC(=O)NO)cc3)cc12)c1ccccc1` [Compound 30, (R)—N-(2-(6-(Hydroxyamino)-6-oxohexylamino)ethyl)-4-(4-(1-phenylethylamino)-7H-pyrrolo[2,3-d]pyrimidin-6-yl)benzamide], the IC50 in data set [1] was < 100 nM; in data set [2] it was 100 to 1000 nM; in data set [3] it was 100 to 1000 nM; in data set [4] it was 100 to 1000 nM.

Consider `O=C(CCCCCCOc1ccc(-c2cc3c(NCc4ccccc4)ncnc3[nH]2)cc1)NO` [Compound 38, 7-(4-(4-(benzylamino)-7H-pyrrolo[2,3-d]pyrimidin-6-yl)phenoxy)-N-hydroxyheptanamide], for which the IC50 in data set [1] is 100 to 1000 nM; in data set [2], 1000 to 10000 nM; in data set [3] it was 1000 to 10000 nM; in data set [4] it was < 100 nM.

As to `C[C@@H](Nc1ncnc2[nH]c(-c3ccc(OCCCCCCC(=O)NO)cc3)cc12)c1ccccc1` [Compound 22, (R)—N-hydroxy-7-(4-(4-(1-phenylethylamino)-7H-pyrrolo[2,3-d]pyrimidin-6-yl)phenoxy)heptanamide], the IC50 in data set [1] was < 100 nM; in data set [2], < 100 nM; in data set [3] it was 100 to 1000 nM; in data set [4], < 100 nM.

On to `C[C@@H](Nc1ncnc2[nH]c(-c3ccc(CN4CCN(CC(=O)NO)CC4)cc3)cc12)c1ccccc1` [Compound 11, (R)—N-Hydroxy-2-(4-(4-(4-(1-phenylethylamino)-7H-pyrrolo[2,3-d]pyrimidin-6-yl)benzyl)piperazin-1-yl)acetamide], for which the concentration for half-maximal inhibition (IC50) in data set [1] was < 100 nM; in data set [2], < 100 nM; in data set [3] it was < 100 nM; in data set [4], > 10000 nM.

Take `C[C@@H](Nc1ncnc2[nH]c(-c3ccc(C(=O)NO)cc3)cc12)c1ccc(F)cc1` [Compound 41]: the IC50 in data set [1] was < 100 nM; in data set [2] it was 100 to 1000 nM; in data set [3], 100 to 1000 nM; in data set [4], 100 to 1000 nM.

For the compound `C[C@@H](Nc1ncnc2[nH]c(-c3ccc(CN4CCN(CCCC(=O)NO)CC4)cc3)cc12)c1ccccc1` [Compound 13, (R)—N-Hydroxy-4-(4-(4-(4-(1-phenylethylamino)-7H-pyrrolo[2,3-d]pyrimidin-6-yl)benzyl)piperazin-1-yl)butanamide], the IC50 in data set [1] was < 100 nM; in data set [2], 100 to 1000 nM; in data set [3] it was < 100 nM; in data set [4], 1000 to 10000 nM.

With `O=C(NO)c1ccc(-c2cc3c(NCc4ccccc4)ncnc3[nH]2)cc1` [Compound 40], the IC50 in data set [1] was < 100 nM; in data set [2], 1000 to 10000 nM; in data set [3] it was 100 to 1000 nM; in data set [4] it was 100 to 1000 nM.

Consider `C[C@@H](Nc1ncnc2[nH]c(-c3ccc(C(=O)NCCNCCCCCCC(=O)NO)cc3)cc12)c1ccccc1` [Compound 31, (R)—N-(2-(7-(Hydroxyamino)-7-oxoheptylamino)ethyl)-4-(4-(1-phenylethylamino)-7H-pyrrolo[2,3-d]pyrimidin-6-yl)benzamide], for which the IC50 in data set [1] is < 100 nM; in data set [2] it was 100 to 1000 nM; in data set [3], 100 to 1000 nM; in data set [4] it was < 100 nM.
